# Measured values: patent US20250382322A1, “DIAGNOSTICS FOR DETECTING ECTO-5'-NUCLEOTIDASE (CD73)” (EBERHARD KARLS UNIVERSITÄT TÜBINGEN, priority 2022, published 2025)
# Target: T1, recombinant soluble rat CD73 (Rattus norvegicus, UniProt P21588)
# T1 construct: glutathione-S-transferase fusion protein of soluble rat CD73; glutathione-S-transferase (GST); made in house; host or cells: Sf9 insect cells
# T1 sequence (P21588 29-551 limits assumed): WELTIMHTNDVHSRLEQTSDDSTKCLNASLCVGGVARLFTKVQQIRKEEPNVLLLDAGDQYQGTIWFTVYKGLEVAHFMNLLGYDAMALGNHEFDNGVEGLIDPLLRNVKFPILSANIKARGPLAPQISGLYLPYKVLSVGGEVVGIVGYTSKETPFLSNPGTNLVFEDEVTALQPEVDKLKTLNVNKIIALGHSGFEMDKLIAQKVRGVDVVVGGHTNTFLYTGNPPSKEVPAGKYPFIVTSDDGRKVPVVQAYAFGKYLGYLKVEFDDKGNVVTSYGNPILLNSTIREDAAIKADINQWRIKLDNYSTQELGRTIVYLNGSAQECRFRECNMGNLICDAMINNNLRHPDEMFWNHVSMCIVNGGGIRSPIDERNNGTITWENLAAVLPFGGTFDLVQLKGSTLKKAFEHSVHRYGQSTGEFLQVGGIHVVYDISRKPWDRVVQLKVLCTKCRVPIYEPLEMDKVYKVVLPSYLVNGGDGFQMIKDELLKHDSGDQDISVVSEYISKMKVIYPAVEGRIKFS
# Test: CD73 enzyme inhibition assay with [2,8-3H]AMP, soluble rat CD73
# Type: biochemical
# Conditions: [2,8-3H]AMP (5 μM) as substrate; read-out: Rat soluble CD73 Ki ± SEM
# Procedure: Compound 2b, its precursor 1, and 20 were investigated for their CD73-inhibitory potency using tritium-labeled AMP as a substrate.^20 After incubation with CD73, non-hydrolyzed substrate and inorganic phosphate were precipitated using a solution of lanthanum chloride, and the precipitate was separated from the solution containing the reaction product [2,8-^3H]adenosine by filtration through GF/B glass fiber filters (WhatmanTM GE Healthcare, Chicago, IL, USA) using a cell harvester (M-48, Brandel, Gaitherburg, MD, USA). The filtrates (ca. 1.8 mL each) were transferred to scintillation vials, scintillation cocktail ULTIMA Gold XR (PerkinElmer, Waltham, MA, USA) was added (5 mL), and the radioactivity esd quantified by scintillation counting. CD73 preparations were (1) recombinant soluble human CD73,^13 (2) recombinant soluble rat CD73,^21 both expressed in Spodoptera frugiperda 9 (Sf) cells, (3) membrane preparations of MDA-MB-231 cells,^16 a human triple-negative breast cancer cell line with high expression of CD73,^18 and (4) membrane preparations of the 4T1.2 cell line, a mouse CD73-expressing breast cancer cell line.^22 The potency of the compounds was determined by measurements of full concentration-inhibition curves. K values were calcuated from the obtained IC50 values employing the Cheng-Prusoff equation.^23 […]
row,Structure (SMILES),Ki [nM]
1,CCCN(Cc1ccc(-c2cn(CCF)nn2)cc1)c1nc(Cl)nc2c1ncn2[C@@H]1O[C@H](COP(=O)(O)CP(=O)(O)O)C(O)C1O (some centres unmarked) [Compound 2],6.09 ± 0.74
2,"O=C(NCCCCCCNC(=O)c1ccc2c(c1)C1(OC2=O)c2ccc(O)cc2Oc2cc(O)ccc21)c1ccc(CNc2nc(Cl)nc3c2ncn3[C@@H]2O[C@H](COP(=O)(O)CP(=O)(O)O)[C@@H](O)[C@H]2O)cc1 [Compound 20, (((((2R,3S,4R,5R)-5-(2-chloro-6-((4-((6-(3′,6′-dihydroxy-3-oxo-3H-spiro[isobenzofuran-1,9′-xanthene]-6-carboxamido)-hexyl)carbamoyl)benzyl)amino)-9H-purin-9-yl)-3,4-dihydroxytetrahydrofuran-2-yl)methoxy)(hydroxy)phosphoryl)methyl)phosphonic acid]",18 ± 1.43
